In ChEMBL document CHEMBL1131748, “Nitroquinolones with broad-spectrum antimycobacterial activity in vitro” (1999):
Converted amounts (≈) assume the structure as drawn.

Columns and labels:
Format in all cases: functional
[1] = system: Mycolicibacterium smegmatis; assay: Minimum inhibitory concentration required in vitro to reduce the number of viable of Mycobacterium smegmatis ATCC 19420 by 50%
Mycobacterium avium [2] = assay: Minimum inhibitory concentration required in vitro to reduce the number of viable of Mycobacterium avium complex (MAC) ATCC 49601 by 50%
Mycobacterium avium [3] = assay: Minimum inhibitory concentration required in vitro to reduce the number of viable of Mycobacterium avium complex (MAC) ATCC 49601 by 90%
Shigella [4] = assay: Minimum bactericidal concentration required in vitro against Shigella
MT4 = assay: Concentration required to reduce the viability of mock-infected MT-4 cells by 50%; details: Homo sapiens
Streptococcus [5] = assay: Minimum inhibitory concentration required in vitro against Streptococcus D
Shigella [6] = assay: Minimum inhibitory concentration required in vitro against Shigella
[7] = system: Mycobacterium tuberculosis; assay: Minimum inhibitory concentration required in vitro to reduce the number of viable of Mycobacterium tuberculosis clinical isolate 1104 by 90%
[8] = system: Mycobacterium tuberculosis; assay: Minimum inhibitory concentration required in vitro to reduce the number of viable of Mycobacterium tuberculosis ATCC 27294 by 90%
[9] = system: Mycobacterium tuberculosis; assay: Minimum inhibitory concentration required in vitro to reduce the number of viable of Mycobacterium tuberculosis ATCC 27294 by 50%
[10] = system: Mycolicibacterium fortuitum; assay: Minimum inhibitory concentration required in vitro to reduce the number of viable of Mycobacterium fortuitum (clinical isolate) by 50%
Salmonella [11] = assay: Minimum inhibitory concentration required in vitro against Salmonella
Staphylococcus aureus [12] = assay: Minimum inhibitory concentration required in vitro against Staphylococcus aureus
Streptococcus [13] = assay: Minimum bactericidal concentration required in vitro against Streptococcus D
[14] = system: Mycolicibacterium smegmatis; assay: Minimum inhibitory concentration required in vitro to reduce the number of viable of Mycobacterium smegmatis ATCC 19420 by 90%
Salmonella [15] = assay: Minimum bactericidal concentration required in vitro against Salmonella
[16] = system: Mycobacterium tuberculosis; assay: Minimum inhibitory concentration required in vitro to reduce the number of viable of Mycobacterium tuberculosis clinical isolate 1104 by 50%
Staphylococcus aureus [17] = assay: Minimum bactericidal concentration required in vitro against Staphylococcus aureus
[18] = system: Mycolicibacterium fortuitum; assay: Minimum inhibitory concentration required in vitro to reduce the number of viable of Mycobacterium fortuitum (clinical isolate) by 90%

Compound | MIC50 [1] | MIC50 (Mycobacterium avium [2]) | MIC90 (Mycobacterium avium [3]) | MBC (Shigella [4]) | CC50 (MT4) | MIC (Streptococcus [5]) | MIC (Shigella [6]) | MIC90 [7] | MIC90 [8] | MIC50 [9] | MIC50 [10] | MIC (Salmonella [11]) | MIC (Staphylococcus aureus [12]) | MBC (Streptococcus [13]) | MIC90 [14] | MBC (Salmonella [15]) | MIC50 [16] | MBC (Staphylococcus aureus [17]) | MIC90 [18]
CC(C)(C)Nc1cc2c(cc1[N+](=O)[O-])c(=O)c(C(=O)O)cn2C1CC1 | 2 µM (≈ 0.691 µg/mL) | 54 µM (≈ 18.6 µg/mL) | > 200 µM | 25 µM (≈ 8.63 µg/mL) | 192 µM | 0.6 µM (≈ 0.207 µg/mL) | 25 µM (≈ 8.63 µg/mL) | > 200 µM | > 200 µM | 35 µM (≈ 12.1 µg/mL) | > 125 µM | 25 µM (≈ 8.63 µg/mL) | 0.6 µM (≈ 0.207 µg/mL) | 2.5 µM (≈ 0.863 µg/mL) | 5 µM (≈ 1.73 µg/mL) | 25 µM (≈ 8.63 µg/mL) | 16 µM (≈ 5.53 µg/mL) | 1.2 µM (≈ 0.414 µg/mL) | –
O=C(O)c1cn(C2CC2)c2cc(N3CCNCC3)c(F)cc2c1=O [CIPROFLOXACIN] | – | 2 µM (≈ 0.663 µg/mL) | 3 µM (≈ 0.994 µg/mL) | 0.01 µM (≈ 0.00331 µg/mL) | 60 µM | 0.4 µM (≈ 0.133 µg/mL) | 0.01 µM (≈ 0.00331 µg/mL) | – | 3 µM (≈ 0.994 µg/mL) | – | – | 0.01 µM (≈ 0.00331 µg/mL) | 0.4 µM (≈ 0.133 µg/mL) | 0.8 µM (≈ 0.265 µg/mL) | – | 0.01 µM (≈ 0.00331 µg/mL) | – | 0.4 µM (≈ 0.133 µg/mL) | –
O=C(O)c1cn(C2CC2)c2cc(NC3CC3)c([N+](=O)[O-])cc2c1=O | 3.2 µM (≈ 1.05 µg/mL) | > 200 µM | – | 1.5 µM (≈ 0.494 µg/mL) | 40 µM | 0.8 µM (≈ 0.263 µg/mL) | 1.5 µM (≈ 0.494 µg/mL) | > 200 µM | > 200 µM | ≥ 200 µM | 3.6 µM (≈ 1.19 µg/mL) | 1.5 µM (≈ 0.494 µg/mL) | 0.8 µM (≈ 0.263 µg/mL) | 0.8 µM (≈ 0.263 µg/mL) | 50 µM (≈ 16.5 µg/mL) | 1.5 µM (≈ 0.494 µg/mL) | 72 µM (≈ 23.7 µg/mL) | 1.5 µM (≈ 0.494 µg/mL) | 100 µM (≈ 32.9 µg/mL)
CC(C)(C)Nc1cc2c(cc1N)c(=O)c(C(=O)O)cn2C(C)(C)C | > 125 µM | 140 µM (≈ 46.4 µg/mL) | > 200 µM | – | > 200 µM | > 125 µM | > 125 µM | > 200 µM | > 200 µM | 168 µM (≈ 55.7 µg/mL) | > 125 µM | > 125 µM | > 125 µM | – | – | – | > 200 µM | – | –
CC(C)(C)n1cc(C(=O)O)c(=O)c2cc([N+](=O)[O-])c(NC3CC3)cc21 | 2 µM (≈ 0.691 µg/mL) | 47 µM (≈ 16.2 µg/mL) | > 200 µM | 25 µM (≈ 8.63 µg/mL) | ≥ 200 µM | 5 µM (≈ 1.73 µg/mL) | 25 µM (≈ 8.63 µg/mL) | > 200 µM | > 200 µM | 31 µM (≈ 10.7 µg/mL) | > 125 µM | 25 µM (≈ 8.63 µg/mL) | 2.5 µM (≈ 0.863 µg/mL) | 10 µM (≈ 3.45 µg/mL) | 7 µM (≈ 2.42 µg/mL) | 25 µM (≈ 8.63 µg/mL) | 47 µM (≈ 16.2 µg/mL) | 10 µM (≈ 3.45 µg/mL) | –
O=C(O)c1cn(C2CC2)c2cc(NC3CC3)c(F)cc2c1=O | 150 µM (≈ 45.3 µg/mL) | > 200 µM | > 200 µM | 25 µM (≈ 7.56 µg/mL) | > 200 µM | 12 µM (≈ 3.63 µg/mL) | 12 µM (≈ 3.63 µg/mL) | – | – | > 200 µM | > 125 µM | 12 µM (≈ 3.63 µg/mL) | 12 µM (≈ 3.63 µg/mL) | 12 µM (≈ 3.63 µg/mL) | > 200 µM | 12 µM (≈ 3.63 µg/mL) | > 200 µM | 12 µM (≈ 3.63 µg/mL) | > 200 µM
Nc1cc2c(=O)c(C(=O)O)cn(C3CC3)c2cc1NC1CC1 | 156 µM (≈ 46.7 µg/mL) | 129 µM (≈ 38.6 µg/mL) | > 200 µM | – | 200 µM | 50 µM (≈ 15 µg/mL) | > 200 µM | – | – | > 200 µM | 200 µM (≈ 59.9 µg/mL) | > 200 µM | 25 µM (≈ 7.48 µg/mL) | 50 µM (≈ 15 µg/mL) | > 200 µM | – | > 200 µM | 25 µM (≈ 7.48 µg/mL) | –
CC1COc2c(N3CCN(C)CC3)c(F)cc3c(=O)c(C(=O)O)cn1c23 (stereo not drawn) [OFLOXACIN] | 2 µM (≈ 0.723 µg/mL) | 1.5 µM (≈ 0.542 µg/mL) | 3 µM (≈ 1.08 µg/mL) | 0.4 µM (≈ 0.145 µg/mL) | > 200 µM | 1.5 µM (≈ 0.542 µg/mL) | 0.4 µM (≈ 0.145 µg/mL) | 3 µM (≈ 1.08 µg/mL) | 3 µM (≈ 1.08 µg/mL) | 3 µM (≈ 1.08 µg/mL) | 2 µM (≈ 0.723 µg/mL) | 0.4 µM (≈ 0.145 µg/mL) | 0.8 µM (≈ 0.289 µg/mL) | 1.5 µM (≈ 0.542 µg/mL) | 4 µM (≈ 1.45 µg/mL) | 0.4 µM (≈ 0.145 µg/mL) | 2 µM (≈ 0.723 µg/mL) | 0.8 µM (≈ 0.289 µg/mL) | 5 µM (≈ 1.81 µg/mL)
CC(C)(C)Nc1cc2c(cc1[N+](=O)[O-])c(=O)c(C(=O)O)cn2C(C)(C)C | 0.5 µM (≈ 0.181 µg/mL) | 1.2 µM (≈ 0.434 µg/mL) | 12 µM (≈ 4.34 µg/mL) | 6 µM (≈ 2.17 µg/mL) | 140 µM | 0.05 µM (≈ 0.0181 µg/mL) | 6 µM (≈ 2.17 µg/mL) | 6 µM (≈ 2.17 µg/mL) | 6 µM (≈ 2.17 µg/mL) | 1.4 µM (≈ 0.506 µg/mL) | – | 3 µM (≈ 1.08 µg/mL) | 0.05 µM (≈ 0.0181 µg/mL) | 0.05 µM (≈ 0.0181 µg/mL) | 1.5 µM (≈ 0.542 µg/mL) | 6 µM (≈ 2.17 µg/mL) | 1.5 µM (≈ 0.542 µg/mL) | 0.05 µM (≈ 0.0181 µg/mL) | –
CC(C)(C)Nc1cc2c(cc1F)c(=O)c(C(=O)O)cn2C(C)(C)C | 34.5 µM (≈ 11.5 µg/mL) | > 200 µM | – | 25 µM (≈ 8.36 µg/mL) | > 200 µM | 12 µM (≈ 4.01 µg/mL) | 12 µM (≈ 4.01 µg/mL) | – | ≥ 200 µM | 126 µM (≈ 42.1 µg/mL) | 36 µM (≈ 12 µg/mL) | 12 µM (≈ 4.01 µg/mL) | 12 µM (≈ 4.01 µg/mL) | 12 µM (≈ 4.01 µg/mL) | > 200 µM | 12 µM (≈ 4.01 µg/mL) | > 200 µM | 12 µM (≈ 4.01 µg/mL) | 129 µM (≈ 43.1 µg/mL)
